Data on 5 compounds can be found in patent US9187449B2, “Compounds with increased specificity for the treatment of glioma” (University of Tennessee Research Foundation, priority 2013, dated 2015).

Counter-ions that a name gives are not always drawn. Like-named read-outs stand apart in the source and are kept apart here.

By IC50 is commonly meant the concentration at which inhibition is half-maximal.

Holding throughout (format): cell-based
Assay [1] has as its system T98G. In words: MTT cell viability assay, T98G glioma cells. The settings on record: human glioma cell line T98G, five days exposure, mean of triplicate experiments, read-out: Mean IC50 ± SD, T98G. The text has this:
(§1) The synthesized THI analogs were screened for their efficacy against established human glioma cell lines using the MTT colorimetric assay. This assay measures cell viability by quantitating purple formazan crystal formation caused by the reduction of tetrazolium salts in metabolically active cells. The inventors performed a series of experiments to determine the best concentration range for each compound to generate a half-maximal inhibitory concentration (IC50). The IC50 value for each compound represents the mean of triplicate experiments. Primary astrocytes established from the cortices of normal mouse pups were used as the model system to represent the degree of toxicity that would be expected in normal astrocytes in the human brain. The glioma cells and normal astrocytes were exposed to escalating concentrations of each THI compound for five days and then subjected to the MTT assay. Cell viability data at each concentration was used to calculate IC50 values.
(Tetrazolium assays rely on reduction of a dye to a coloured formazan, in cell work by metabolically active cells.)

Assay [2] deals with U87. Kind of assay: MTT cell viability assay, U87 glioma cells. The settings on record: human glioma cell line U87, five days exposure, mean of triplicate experiments, read-out: Mean IC50 ± SD, U87.
Excerpt: as §1

Assay [3] has as its system LN18. In words: MTT cell viability assay, LN18 glioma cells. The settings on record: human glioma cell line LN18, five days exposure, mean of triplicate experiments, read-out: Mean IC50 ± SD, LN18.
Excerpt: as §1

Assay [4] concerns Normal astrocytes. Kind of assay: MTT cell viability assay, normal primary astrocytes (toxicity model). As to conditions: primary astrocyte cultures from normal mouse brains, five days exposure, mean of triplicate experiments, read-out: Mean IC50 ± SD, Normal astrocytes.
Excerpt: as §1

For assay [5], the system named is A172. Kind of assay: MTT cell viability assay, A172 glioma cells. The settings on record: human glioma cell line A172, five days exposure, mean of triplicate experiments, read-out: Mean IC50 ± SD, A172.
Excerpt: as §1

On to `COc1cc2c(cc1OC)C(Cc1ccc(-c3cnccc3OC)cc1)NCC2` (stereo not shown) [EDL-291 (9)], for which the half-maximal inhibitory concentration (IC50) in assay [1] came out at 59.5 ± 7.61 µM; in assay [2] it was 66.5 ± 1.12 µM; in assay [3] it was 37 µM; in assay [4] it was 51.1 ± 1.38 µM; in assay [5], 41.2 µM.
As for `COc1ccncc1-c1ccc(CC2NCCc3c(OC)ccc(OC)c32)cc1` (stereo not shown) [EDL-358 (11), 5,8-dimethoxy-1-(4-(4-methoxypyridin-3-yl)benzyl)-1,2,3,4-tetrahydroisoquinoline dihydrochloride], the IC50 in assay [1] (120 h) worked out at 13.8 µM; in assay [2] (U-87 MG, 120 h), 16.2 µM; in assay [3] (LN-18, 120 h), 13.7 µM; in assay [4] (120 h), 24.6 ± 0.79 µM; in assay [5] (A 172, 120 h), 8.25 µM.
Taken in the same sequence, the figures for `COc1ccncc1-c1ccc(CCC2NCCc3c(OC)ccc(OC)c32)cc1` (stereo not shown) [EDL-360 (12), 5,8-dimethoxy-1-(4-(4-methoxypyridin-3-yl)phenethyl)-1,2,3,4-tetrahydroisoquinoline dihydrochloride] were 10.4 µM, 8.4 µM, 5.42 µM, 19.7 ± 2.44 µM and 5.6 µM.
Taken in the same sequence, the figures for `COc1ccncc1-c1ccc(CCCC2NCCc3c(OC)ccc(OC)c32)cc1` (stereo not shown) [EDL-361 (13), 5,8-dimethoxy-1-(3-(4-(4-methoxypyridin-3-yl)phenyl)propyl)-1,2,3,4-tetrahydroisoquinoline dihydrochloride] were 14.8 ± 0.68 µM, 10.5 µM, 11.7 ± 0.17 µM, 11.9 ± 0.56 µM and 15.2 ± 0.98 µM.
On to `Cn1nnc2c(C(N)=O)ncn2c1=O` [TMZ, reference compound], for which the IC50 was 571 ± 50.4 µM in assay [1]; 49.1 ± 5.15 µM in assay [2]; 392 ± 77.2 µM in assay [3]; more than 1000 µM in assay [4]; 65.3 ± 12 µM in assay [5].
